Results: the NIST ThermoML archive (doi:10.1016/j.tca.2012.11.004)
Numbers after ± are expanded uncertainties.

Assays:
[1] = 298.15 K; 101.33 kPa; Liquid; Vibrating tube method
[2] = refractive index (Na D-line) (dimensionless); conditions: 101.33 kPa, Liquid, Standard Abbe refractometry

mass density [1] [kg/m3] | refractive index ([2]; 298.1 K) | refractive index ([2]; 298.15 K) | Compound
936.38 ± 0.08 | 1.4358 ± 0.0007 | – | CC(=O)N(C)C [N,N-dimethylethanamide]
998.94 ± 0.23 | – | 1.4302 ± 0.0007 | CNC=O [N-methylformamide]
943.9 ± 0.11 | – | 1.4281 ± 0.0007 | CN(C)C=O [dimethylformamide]
1129.16 ± 0.16 | – | 1.4465 ± 0.0007 | NC=O [formamide]
